According to patent publication US20090047246A1, “NOVEL INHIBITORS OF HEPATITIS C VIRUS REPLICATION” (InterMune, Inc., priority 2007, published 2009):
Where two headings read alike, the source gives them in different places.

Target: T1, HCV NS3 helicase (Hepatitis C virus genotype 1b, UniProt P26663)
T1 construct: full-length NS3 (1-631), purified at Array BioPharma
Assay: HCV Helicase Prompt FRET Assay (Example A)
Format: biochemical
How it was run: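 Full-length NS3 (1-631), 5 or 6 nM, preincubated 5 min with compound, then unwinds 50 nM FAM/BHQ-1 duplex substrate with 250 nM capture strand and 300 μM ATP in 25 mM MOPS pH 7.0, 1.5 mM MgCl2, 0.005% Triton X-100, 2% DMSO. Fluorescence (485/535 nm) followed ~30 min at room temperature; IC50 from initial rates by 4- or 5-parameter fit.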

[1] = HCV NS3 helicase, tables do not say whether Example A or Example B assay, read-out: IC50 Activity

T1 sequence (P26663 1027-1657): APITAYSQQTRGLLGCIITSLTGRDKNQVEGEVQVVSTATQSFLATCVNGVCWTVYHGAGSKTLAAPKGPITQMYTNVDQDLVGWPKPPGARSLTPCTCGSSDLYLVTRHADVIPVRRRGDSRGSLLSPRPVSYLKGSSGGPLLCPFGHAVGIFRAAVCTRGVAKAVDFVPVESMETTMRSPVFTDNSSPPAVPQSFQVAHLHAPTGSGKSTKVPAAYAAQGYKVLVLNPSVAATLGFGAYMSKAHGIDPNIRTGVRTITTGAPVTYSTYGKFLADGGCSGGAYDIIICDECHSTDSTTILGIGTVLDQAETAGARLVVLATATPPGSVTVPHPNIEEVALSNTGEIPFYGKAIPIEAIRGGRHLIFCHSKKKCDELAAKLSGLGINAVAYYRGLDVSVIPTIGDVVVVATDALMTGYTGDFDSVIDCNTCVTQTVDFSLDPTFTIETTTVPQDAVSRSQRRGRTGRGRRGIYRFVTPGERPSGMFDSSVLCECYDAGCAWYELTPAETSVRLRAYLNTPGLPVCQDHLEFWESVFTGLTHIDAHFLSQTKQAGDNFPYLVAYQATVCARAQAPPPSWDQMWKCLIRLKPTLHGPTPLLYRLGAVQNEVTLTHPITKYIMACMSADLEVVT

SMILES	IC50 [1] [µM]	other results
O=C(O)Cc1cn(-c2ccc([N+](=O)[O-])cc2[N+](=O)[O-])c2ncc(Br)cc12 [Example 337]	10 to 50	
COC(OC)c1cc([N+](=O)[O-])ccc1-n1cc(CC(=O)O)c2cc(Br)ccc21 [Example 338]	> 50	
O=C(O)Cc1cn(-c2ccc([N+](=O)[O-])cc2C2OCCO2)c2ccc(Br)cc12 [Example 339]	10 to 50	
O=C(O)Cc1cn(Cc2csc3ccc(Cl)cc23)c2cc(OCc3ccccc3)ccc12 [Example 340]	< 10	
COc1ccc2c(CC(=O)O)cn(-c3ccc([N+](=O)[O-])cc3C)c2c1 [Example 341]	> 50	
COc1cc2c(cc1OCc1ccccc1)c(CC(=O)O)cn2-c1ccc([N+](=O)[O-])cc1C [Example 342]	10 to 50	
Cc1cc([N+](=O)[O-])ccc1-n1cc(CC(=O)O)c2ccc(OCc3ccccc3)cc21 [Example 343]	10 to 50	
Cc1cc([N+](=O)[O-])ccc1-n1cc(CC(=O)O)c2cc3c(cc21)OCO3 [Example 344]	> 50	
COc1ccc2c(CC(=O)O)cn(Cc3csc4ccc(Cl)cc34)c2c1 [Example 345]	10 to 50	
COc1cc2c(cc1OCc1ccccc1)c(CC(=O)O)cn2Cc1csc2ccc(Cl)cc12 [Example 346]	10 to 50	
O=C(O)Cc1c(Cc2csc3ccc(Cl)cc23)[nH]c2cc(OCc3ccccc3)ccc12 [Example 347]	< 10	
O=C(O)Cc1c(Cc2csc3ccc(Cl)cc23)n(Cc2csc3ccc(Cl)cc23)c2cc(OCc3ccccc3)ccc12 [Example 348]	< 10	
CCOc1ccc2c(CC(=O)O)cn(Cc3csc4ccc(Cl)cc34)c2c1 [Example 349]	10 to 50	
O=C(OCc1ccccc1)C(Cc1ccccc1)c1cn(Cc2csc3ccc(Cl)cc23)c2cc(OCc3ccccc3)ccc12 (stereo not drawn) [Example 350]	> 50	
O=C(O)C(Cc1ccccc1)c1cn(Cc2csc3ccc(Cl)cc23)c2cc(OCc3ccccc3)ccc12 (stereo not drawn) [Example 351]	< 10	
C=COc1ccc2c(CC(=O)O)cn(Cc3csc4ccc(Cl)cc34)c2c1 [Example 352]	< 10	
O=C(O)Cc1cn(Cc2csc3ccc(Cl)cc23)c2cc(-c3ccccc3)ccc12 [Example 353]	< 10	
O=C(O)Cc1cn(CC(=O)O)c2cc(-c3ccccc3)ccc12 [Example 354]	> 50	
O=C(O)Cc1c[nH]c2c(Oc3ccc([N+](=O)[O-])cc3)cccc12 [Example 355]	> 50	

SMILES	IC50 [1] [µM]	other results
O=C(O)Cc1cn(Cc2csc3ccc(Cl)cc23)c2c(Oc3ccc([N+](=O)[O-])cc3)cccc12 [Example 356]	< 10	
O=C(O)Cc1cn(Cc2csc3ccc(Cl)cc23)c2cc(Oc3ccc([N+](=O)[O-])cc3)ccc12 [Example 357]	< 10	
O=C(O)Cc1cn(Cc2csc3ccc(Cl)cc23)c2cc(OCc3ccccc3)c(OCc3ccccc3)cc12 [Example 358]	< 10	
O=C(O)Cc1cn(Cc2csc3ccc(Cl)cc23)c2cc(Br)ccc12 [Example 359]	10 to 50	
O=C(O)C(Cc1csc2ccc(Cl)cc12)c1cn(Cc2csc3ccc(Cl)cc23)c2cc(Br)ccc12 (stereo not drawn) [Example 360]	< 10	
O=C(O)C(Cc1csc2ccc(Cl)cc12)c1cn(Cc2csc3ccc(Cl)cc23)c2cc(-c3ccco3)ccc12 (stereo not drawn) [Example 361]	< 10	
Nc1cccc(-c2ccc3c(CC(=O)O)cn(Cc4csc5ccc(Cl)cc45)c3c2)c1 [Example 363]	< 10	
C#Cc1ccc2c(CC(=O)O)cn(Cc3csc4ccc(Cl)cc34)c2c1 [Example 364]	< 10	
Nc1cc(-c2ccc3c(CC(=O)O)cn(Cc4csc5ccc(Cl)cc45)c3c2)cc([N+](=O)[O-])c1 [Example 365]	< 10	
O=C(O)Cc1c(Cc2csc3ccc(Cl)cc23)n(Cc2ccccc2)c2cc(OCc3ccccc3)ccc12 [Example 366]	< 10	
C=CCn1c(Cc2csc3ccc(Cl)cc23)c(CC(=O)O)c2ccc(OCc3ccccc3)cc21 [Example 367]	< 10	
Cn1c(Cc2csc3ccc(Cl)cc23)c(CC(=O)O)c2ccc(OCc3ccccc3)cc21 [Example 368]	< 10	
O=C(O)Cc1c(Cc2csc3ccc(Cl)cc23)n(CC2CC2)c2cc(OCc3ccccc3)ccc12 [Example 369]	< 10	
CCn1c(Cc2csc3ccc(Cl)cc23)c(CC(=O)O)c2ccc(OCc3ccccc3)cc21 [Example 370]	< 10	
Cc1cc([N+](=O)[O-])ccc1-n1c(Cc2csc3ccc(Cl)cc23)c(CC(=O)O)c2ccc(OCc3ccccc3)cc21 [Example 371]	< 10	
O=C(O)Cc1c(Cc2csc3ccc(Cl)cc23)n(-c2ccc([N+](=O)[O-])cc2)c2cc(OCc3ccccc3)ccc12 [Example 372]	< 10	
Nc1cc(N)cc(-c2ccc3c(CC(=O)O)cn(Cc4csc5ccc(Cl)cc45)c3c2)c1 [Example 373]	< 10	
O=C(O)Cc1c(Cc2csc3ccc(Cl)cc23)[nH]c2ccc(Br)cc12 [Example 374]	10 to 50	
Cc1cc([N+](=O)[O-])ccc1-n1ccc2cc(Br)ccc21 [Example 376]	> 50	

SMILES	IC50 [1] [µM]	other results
Cc1cc([N+](=O)[O-])ccc1-n1cc(CC(=O)O)c2ccccc21 [Example 377]	> 50	
COC(=O)Cc1cn(-c2ccc([N+](=O)[O-])cc2C)c2ccc(Br)cc12 [Example 378]	> 50	
CCOC(=O)C(=O)c1cn(-c2ccc([N+](=O)[O-])cc2C)c2ccc(Br)cc12 [Example 379]	10 to 50	
Cc1ccc2c(c1)c(CC(=O)O)cn2-c1ccc([N+](=O)[O-])cc1C [Example 380]	> 50	
Cc1cc([N+](=O)[O-])ccc1-n1cc(C(=O)C(=O)O)c2cc(Br)ccc21 [Example 381]	10 to 50	
Cc1cc([N+](=O)[O-])ccc1-n1cc(C(=O)O)c2cc(Br)ccc21 [Example 382]	> 50	
CCOC(=O)C(F)(F)c1cn(-c2ccc([N+](=O)[O-])cc2C)c2ccc(Br)cc12 [Example 383]	10 to 50	
Cc1cc([N+](=O)[O-])ccc1-n1cc(C(=O)C(N)=O)c2cc(Br)ccc21 [Example 384]	> 50	
CCN(CC)C(=O)C(=O)c1cn(-c2ccc([N+](=O)[O-])cc2C)c2ccc(Br)cc12 [Example 385]	> 50	
Cc1cc([N+](=O)[O-])ccc1-n1cc(CCC(=O)O)c2cc(Br)ccc21 [Example 386]	10 to 50	
COC(=O)C(c1ccccc1)c1cn(-c2ccc([N+](=O)[O-])cc2C)c2ccc(Br)cc12 (stereo not drawn) [Example 387]	10 to 50	IC50 (2nd test, read-out: IC50 Activity (on 2nd test)): > 50 µM
Cc1cc([N+](=O)[O-])ccc1-n1cc(C(C(=O)O)c2ccccc2)c2cc(Br)ccc21 (stereo not drawn) [Example 388]	< 10	
CCOC(=O)C(O)(c1cn(-c2ccc([N+](=O)[O-])cc2C)c2ccc(Br)cc12)C(F)(F)F (stereo not drawn) [Example 389]		IC50 (IC50 Activity, HCV NS3 helicase, tables do not say whether Example A or Example B assay): > 50 µM
COC(=O)C(C)c1cn(-c2ccc([N+](=O)[O-])cc2C)c2ccc(Br)cc12 (stereo not drawn) [Example 390]	> 50	
Cc1cc([N+](=O)[O-])ccc1-n1cc(C(C)C(=O)O)c2cc(Br)ccc21 (stereo not drawn) [Example 391]	10 to 50	
Cc1cc([N+](=O)[O-])ccc1-n1cc(C(O)(C(=O)O)C(F)(F)F)c2cc(Br)ccc21 (stereo not drawn) [Example 392]	< 10	
COC(=O)CC1CN(c2ccc([N+](=O)[O-])cc2C)c2ccc(Br)cc21 (stereo not drawn) [Example 393]	10 to 50	
CCOC(=O)C(O)c1cn(-c2ccc([N+](=O)[O-])cc2C)c2ccc(Br)cc12 (stereo not drawn) [Example 394]	> 50	
